The source made the active and inactive calls. How the calls were made is not given here.

Peptidyl-prolyl cis-trans isomerase FKBP1A (Homo sapiens), sequence (P62942 whole entry, looked up): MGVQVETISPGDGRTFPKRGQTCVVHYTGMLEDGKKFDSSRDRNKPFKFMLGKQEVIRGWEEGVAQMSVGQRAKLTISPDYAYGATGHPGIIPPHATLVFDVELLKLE

The assay concerns the target Peptidyl-prolyl cis-trans isomerase FKBP1A (Homo sapiens) (UniProt P62942). Description: FKBP12 binders, biophysical, NMR detection (AID 608). Conditions: NMR binding, purified FKBP12.
Usually Kd stands for a measure of binding affinity in units of concentration. As for `CC(C)(C)CC(=O)N1CCC(C(N)=O)CC1`, the Kd is > 4 mM (inactive). The result for `C[C@@H]1CC[C@@]23CCC4(C)[C@@](C=CC5[C@@]6(C)CCC(=O)C(C)(C)C6CC[C@]54C)(OC2=O)C3[C@H]1C` (stereo partly drawn) reads > 4 mM (inactive); that for `COc1ccc(OCC(=O)N2CCOCC2)cc1`, “inactive”; that for `C[C@H]1CCCC(=O)CCC/C=C/c2cc(O)cc(O)c2C(=O)O1`, > 4 mM (inactive). Turning to `COc1cc(C)c(Cl)cc1S(=O)(=O)N(C)C`, the Kd is > 4 mM (inactive). For `O=C1CCCCCN1CO`, the Kd was > 4 mM (inactive). With `Cc1cc2cc(N)ccc2[nH]1`, the Kd is > 4 mM (inactive). `NC1=NC(=O)/C(=C\c2cccc(C(=O)O)c2)S1`: the Kd was > 4 mM (inactive).

Take `COc1c(F)c(F)c(-c2csc(N)n2)c(F)c1F`: the Kd was > 4 mM (inactive). `Cc1cc(OCC(=O)N2CCOCC2)ccc1NC(=O)OCc1ccccc1`: the Kd was > 4 mM (inactive). Regarding `Cc1nc(NC(=O)c2cccnc2)ccc1Br`, the Kd was > 4 mM (inactive). Turning to `COc1ccccc1-c1cn[nH]c(=S)n1`, the Kd is > 4 mM (inactive). Regarding `COc1c(O)cc2c(-c3ccccc3)cc(=O)oc2c1OC`, the Kd is > 4 mM (inactive). For the compound `CC(=O)Nc1ccc(C)cc1NC(C)=O`, the Kd is > 4 mM (inactive). On to `Cc1c(CO)cnn1-c1ccccc1`, for which the Kd was > 4 mM (inactive). The result for `Cc1ncoc1C(=O)Nc1ncc([N+](=O)[O-])s1` reads > 4 mM (inactive); that for `CSc1nnc2c(n1)OC=Nc1ccccc1-2`, > 4 mM (inactive). The result for `O=C1CCCC2C3CC(CN12)[C@@H]1CCCCN1C3` (stereo partly drawn) reads > 4 mM (inactive); that for `COC(=O)C1COCCN1C(=O)CSc1ccc(C(C)C)cc1` (stereo not drawn), 0.0003 mM; that for `CS/C(N)=C\C(C)=O`, > 4 mM (inactive). In the case of `Clc1ccc2c(N3CCNCC3)ccnc2c1`, the Kd is > 4 mM (inactive). Turning to `CN(C)N1C(=O)C2CCCCC2C1=O` (stereo not drawn), the Kd was > 4 mM (inactive).

As to `NC(=O)CNC(=O)c1ccccc1`, the Kd is > 4 mM (inactive). Under `Cc1cc(O)c(C)c(O)c1C(=O)O` stands > 4 mM (inactive). Turning to `NC(=S)N1CCC(c2ccccc2)=N1`, the Kd is > 4 mM (inactive). For the compound `CC(=O)c1cnc2nc(C(F)(F)F)nn2c1C`, the Kd was > 4 mM (inactive). As to `COc1cc2nc(N3CCNCC3)nc(N)c2cc1OC`, the Kd was > 4 mM (inactive).

`Nc1cc(F)cc(F)c1`: the Kd is > 4 mM (inactive). The result for `COc1ccc(CN2CCNC(=O)C2CC(=O)O)cc1C` (stereo not drawn) reads > 4 mM (inactive). For `S=C(c1cccnc1)N1CCOCC1`, the Kd is > 4 mM (inactive). On to `CCOC(=O)Cn1cnc2c1c(=O)[nH]c(=O)n2C`, for which the Kd is > 4 mM (inactive). As for `COc1ccc2c(c1)OC[C@@H](Cc1ccc(OC)c(OC)c1)[C@H]2O`, the Kd was > 4 mM (inactive). For the compound `C[C@@H]1O[C@@H](O[C@H]2C[C@@H](O)[C@]3(CO)C4C(CC[C@]3(O)C2)[C@@]2(O)CC[C@H](C3=CC(=O)OC3)[C@@]2(C)C[C@H]4O)[C@H](O)[C@H](O)[C@H]1O` (stereo partly drawn), the Kd was > 4 mM (inactive). Take `CC(=O)Nc1cccs1`: the Kd was > 4 mM (inactive). For `COc1ccc(-c2ccc(SCC(N)=O)nn2)cc1`, the Kd was > 4 mM (inactive). As for `COC(=O)[C@]1(C)CC[C@]2(C)CC[C@]3(C)C4=CC=C5C(=CC(=O)C(O)=C5C)[C@]4(C)CC[C@@]3(C)[C@@H]2C1`, the Kd is > 4 mM (inactive). For the compound `O=C(Nc1cnccn1)c1cccs1`, the Kd is > 4 mM (inactive). For the compound `CC(C)(O)[C@@H]1[C@H]2OC(=O)[C@@H]1[C@]1(O)C[C@H]3O[C@]34C(=O)O[C@H]2[C@]14C`, the Kd is > 4 mM (inactive).

`Cc1nnc(SCC(=O)N2CCCCC2)s1`: the Kd was > 4 mM (inactive). For `CC12CCC3C(CC3(C)C)C(C)(CCC1=O)O2` (stereo not drawn), the Kd was > 4 mM (inactive).

As to `CC(=O)O[C@@H]1c2c(ccc3ccc(=O)oc23)OC(C)(C)[C@@H]1OC(=O)CC(C)C`, the Kd is > 4 mM (inactive).

Regarding `Cc1ccc(S(=O)(=O)CC(=O)N2CCOCC2)cc1`, the dissociation constant Kd was 0.095 mM.

Regarding `CCc1sc(C(=O)NC)cc1Br`, the Kd was > 4 mM (inactive). Take `NC(=O)c1sc2ccccc2c1Cl`: the Kd is > 4 mM (inactive).

Consider `CC1(C)C2CC(=O)[C@]3(C)C(CC[C@@]4(C)[C@H](c5ccoc5)OC(=O)C5OC543)[C@@]2(C)[C@@H](O)C[C@H]1O` (stereo partly drawn), for which the Kd was > 4 mM (inactive). As for `COC(=O)C[C@@H]1C2(C)C(=O)[C@@H](CC3=C4CC(=O)O[C@@H](c5ccoc5)[C@]4(C)CCC32)[C@H](OC(C)=O)C1(C)C` (stereo partly drawn), the Kd is > 4 mM (inactive). Regarding `NCc1ccc(S(N)(=O)=O)cc1`, the Kd was > 4 mM (inactive). The result for `Cc1occc1C(=O)Nc1nccs1` reads > 4 mM (inactive).

For `COC(=O)CSc1nc(N)cc(=O)[nH]1`, the Kd is > 4 mM (inactive).

As for `Cc1cccnc1NC1=NCC(C)S1` (stereo not drawn), the Kd was > 4 mM (inactive).

As for `Cc1cc(=O)n(C(N)=S)[nH]1`, the Kd was > 4 mM (inactive). Consider `COc1cc(/C=C2\SC(=S)NC2=O)ccc1O`, for which the Kd is > 4 mM (inactive). With `Nc1cccc2nsnc12`, the Kd was > 4 mM (inactive). On to `Nc1cc(=O)[nH]c(SCC(=O)Nc2nccs2)n1`, for which the Kd was > 4 mM (inactive).

Turning to `Nc1cccc2nonc12`, the Kd was > 4 mM (inactive). In the case of `CS(=O)(=O)N1CCN(C(=O)c2ccccc2F)CC1`, the Kd was > 4 mM (inactive). `COC(=O)NNc1ncnc(N)c1[N+](=O)[O-]`: the Kd is > 4 mM (inactive).

As for `CC1=CC(=O)C2C(C)(C)CCC[C@]2(C)[C@@]1(O)CCc1ccoc1` (stereo partly drawn), the Kd is > 4 mM (inactive).

As for `COC(=O)c1cc(-c2c[nH]c3ccccc23)n[nH]1`, the Kd was > 4 mM (inactive).

As for `Cn1c(O)c(C=NCC2CCNCC2)c(=O)n(C)c1=O`, the Kd is > 4 mM (inactive). On to `O=C1c2ccccc2C(=O)N1/N=C/c1ccc[nH]1`, for which the Kd was > 4 mM (inactive). Regarding `O=C(O)C1=Cc2ccccc2OC1`, the Kd is > 4 mM (inactive). For `O=c1oc2c(O)c(O)cc3c(=O)oc4c(O)c(O)cc1c4c23`, the Kd was > 4 mM (inactive).

For `OCCCc1nc2ccccc2[nH]1`, the Kd is > 4 mM (inactive). `CC(=O)N(c1ccccc1)C1C=CS(=O)(=O)C1` (stereo not drawn): the Kd was > 4 mM (inactive).

Consider `O=C(O)c1ccc(NCc2cccnc2)cc1`, for which the Kd was > 4 mM (inactive). `COc1ccc2ccc(=O)oc2c1CC=C(C)C`: the Kd is > 4 mM (inactive). As to `CNCc1ccco1`, the Kd was > 4 mM (inactive). The result for `CC1=CC(=O)NC2C=CC=CC12` (stereo not drawn) reads > 4 mM (inactive); that for `CC(C)c1ccc(SCC(=O)O)cc1`, > 4 mM (inactive).

Consider `OC[C@H]1O[C@@H](n2cnc3c(NCc4ccco4)ncnc32)[C@H](O)[C@@H]1O`, for which the Kd is > 4 mM (inactive). The result for `NC(=O)CC1NC(=O)c2ccccc21` (stereo not drawn) reads > 4 mM (inactive); that for `Cc1cc(C(=O)NCc2cccnc2)no1`, > 4 mM (inactive); that for `O=C(c1ccco1)N1C(=O)c2cccc3cccc1c23`, > 4 mM (inactive). For the compound `CC(=O)NC1=NN(c2ccccc2)C(=O)C1`, the Kd was > 4 mM (inactive). Take `CN(C)c1nc(N)nc(-c2nc3ccccc3s2)n1`: the Kd is > 4 mM (inactive).

In the case of `Cc1nn2c(nc1=O)SCC2(O)c1ccccc1` (stereo not drawn), the Kd is > 4 mM (inactive).

Consider `O=C(O)c1cc(=O)[nH]c2ccccc12`, for which the Kd was > 4 mM (inactive). On to `CN(c1ccc(C(=O)N2CCCCC2)cc1)S(C)(=O)=O`, for which the Kd was > 4 mM (inactive). As to `Cc1nn(-c2ccccc2)nc1CO`, the Kd was > 4 mM (inactive). The result for `COc1cc2c(cc1OC)[C@@H]1C(=O)c3ccc(OC)c(CC=C(C)C)c3O[C@@H]1CO2` reads > 4 mM (inactive); that for `CN1CCCC1C(=O)O` (stereo not drawn), > 4 mM (inactive); that for `O=S(=O)(N1CCOCC1)n1c(Cc2ccccc2)nc2ccccc21`, “inactive”.

Regarding `Cn1ccc(NC(=S)NC2CCCC2)n1`, the Kd is > 4 mM (inactive). The result for `COc1cnn(-c2ccccc2)c(=O)c1N(C)C` reads > 4 mM (inactive); that for `CCNC(=S)N1CCC(C(N)=O)CC1`, > 4 mM (inactive); that for `CCOC(=O)c1csc(C2COc3ccccc3O2)n1` (stereo not drawn), > 4 mM (inactive).

For the compound `COc1c(C(=O)N2CCCC2)ccc2ccccc12`, the Kd is > 4 mM (inactive). For the compound `Cc1cc(=O)n2[nH]c(N)nc2n1`, the Kd was > 4 mM (inactive). As for `O=C(O)c1ccccc1C(=O)NCC1CCCO1` (stereo not drawn), the Kd is > 4 mM (inactive). Take `NCCc1c[nH]c2ccccc12`: the Kd is > 4 mM (inactive). With `O=C(Nc1ccc(Cl)cn1)c1cnn2cccnc12`, the Kd was > 4 mM (inactive).

For `CC(=O)Nc1cccc(-c2n[nH]c(=S)n2C)c1`, the Kd is > 4 mM (inactive). Under `CCOC(=O)CC1Sc2ccccc2NC1=S` (stereo not drawn) stands > 4 mM (inactive); under `CSc1nc(-c2ccco2)nn1S(C)(=O)=O`, > 4 mM (inactive); under `N[C@@H](Cc1ccc(O)c(O)c1)C(=O)O`, > 4 mM (inactive).

Regarding `O=C(O)CCNc1n[nH]c(=O)[nH]c1=O`, the Kd was > 4 mM (inactive).

`Cc1c(C(=O)NCc2ccccn2)oc2ccccc12`: the Kd was > 4 mM (inactive). Under `COc1ccccc1NC(=O)CCC(=O)O` stands > 4 mM (inactive); under `CCOC(=O)C(C)c1n[nH]c(=O)c2ccccc12` (stereo not drawn), > 4 mM (inactive); under `Cc1cc(=O)n2nc(-c3ccccc3)sc2n1`, > 4 mM (inactive). The result for `Cc1cc(F)c(F)c(C(=O)NC2CC2)c1Cl` reads > 4 mM (inactive); that for `O=C1C=C(Nc2ccccc2O)c2ccccc2C1=O`, > 4 mM (inactive).

These data come from PubChem BioAssay AID608 (Sanford-Burnham Center for Chemical Genomics, 2007).
